Where a name gives a salt, the structure may show the parent alone.
Legend:
[1] = target: T1, α-1A adrenoceptor (dog prostate) (Homo sapiens, UniProt P35348); assay: Functional antagonism of phenylephrine-induced contraction of canine prostate strips; format: cell-based, dog (canine); conditions: vs phenylephrine-induced contraction, Schild plot
T1 construct: from tissue; host or cells: canine prostate strips
T1 sequence (P35348 1-466): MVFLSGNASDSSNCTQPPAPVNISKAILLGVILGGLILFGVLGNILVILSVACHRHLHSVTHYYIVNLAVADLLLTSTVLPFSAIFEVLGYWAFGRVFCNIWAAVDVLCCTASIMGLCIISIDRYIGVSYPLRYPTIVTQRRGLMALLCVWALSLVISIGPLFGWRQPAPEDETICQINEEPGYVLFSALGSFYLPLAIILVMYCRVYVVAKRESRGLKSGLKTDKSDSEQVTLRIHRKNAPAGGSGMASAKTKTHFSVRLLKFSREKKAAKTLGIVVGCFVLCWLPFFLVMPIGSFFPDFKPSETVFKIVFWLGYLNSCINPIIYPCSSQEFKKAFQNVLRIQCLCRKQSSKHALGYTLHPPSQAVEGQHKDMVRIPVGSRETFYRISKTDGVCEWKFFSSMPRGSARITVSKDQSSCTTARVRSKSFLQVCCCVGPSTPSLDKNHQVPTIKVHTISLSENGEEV
Text: (§1) Canine prostate strips were used in vitro as previously described (Hieble, J. P., Boyce, A. J. and Caine, M., Fed. Proc., 45: 2609-2614 (1986)), to determine antagonist potencies against phenylephrine-induced contractions.
(§2) Functional assays indicative of pharmacologically defined α-1 adrenoceptors were used to further characterize compounds. Inhibition of phenylephrine (PE)-induced contraction of canine prostate smooth muscle can be correlated with α-1A adrenoceptor activation. […] For each of these models, agonist dose response curves were repeated against increasing concentrations of test agent to derive a Schild plot [log ([…]) against log (molarity of test agent)] to determine the pA2.

[2] = target: T2, α-1A adrenoceptor (rat vas deferens) (Rattus norvegicus, UniProt P43140); assay: Functional antagonism of phenylephrine-induced contraction of rat vas deferens; format: cell-based; conditions: vs phenylephrine-induced contraction, Schild plot; for Kb: read-out: pA2 Rat Vas Deferens [α-1A] (converted)
T2 construct: PE-induced contraction of rat vas deferens; from tissue; host or cells: isolated rat vas deferens
T2 sequence (P43140 1-466): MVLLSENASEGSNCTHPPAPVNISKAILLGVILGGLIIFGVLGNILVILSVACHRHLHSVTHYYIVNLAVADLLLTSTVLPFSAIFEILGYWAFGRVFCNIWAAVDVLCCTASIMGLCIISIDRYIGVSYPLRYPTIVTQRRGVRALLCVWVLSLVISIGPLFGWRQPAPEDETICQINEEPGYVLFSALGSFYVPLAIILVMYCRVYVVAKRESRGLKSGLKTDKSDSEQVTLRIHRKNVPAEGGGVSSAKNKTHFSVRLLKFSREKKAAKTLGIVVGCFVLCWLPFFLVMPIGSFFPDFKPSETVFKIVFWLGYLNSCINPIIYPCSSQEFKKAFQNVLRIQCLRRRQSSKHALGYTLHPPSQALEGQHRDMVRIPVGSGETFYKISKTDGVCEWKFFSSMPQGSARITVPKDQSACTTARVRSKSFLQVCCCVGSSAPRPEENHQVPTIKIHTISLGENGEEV
Text: as §2

[3] = target: T3, α-1B adrenoceptor (rat spleen) (Rattus norvegicus, UniProt P15823); assay: Functional antagonism of phenylephrine-induced contraction of rat spleen; format: cell-based; conditions: vs phenylephrine-induced contraction, Schild plot; for Kb: read-out: pA2 Rat Spleen [α-1B] (converted)
T3 construct: PE-induced contraction of rat spleen; from tissue; host or cells: isolated rat spleen
T3 sequence (P15823 1-515): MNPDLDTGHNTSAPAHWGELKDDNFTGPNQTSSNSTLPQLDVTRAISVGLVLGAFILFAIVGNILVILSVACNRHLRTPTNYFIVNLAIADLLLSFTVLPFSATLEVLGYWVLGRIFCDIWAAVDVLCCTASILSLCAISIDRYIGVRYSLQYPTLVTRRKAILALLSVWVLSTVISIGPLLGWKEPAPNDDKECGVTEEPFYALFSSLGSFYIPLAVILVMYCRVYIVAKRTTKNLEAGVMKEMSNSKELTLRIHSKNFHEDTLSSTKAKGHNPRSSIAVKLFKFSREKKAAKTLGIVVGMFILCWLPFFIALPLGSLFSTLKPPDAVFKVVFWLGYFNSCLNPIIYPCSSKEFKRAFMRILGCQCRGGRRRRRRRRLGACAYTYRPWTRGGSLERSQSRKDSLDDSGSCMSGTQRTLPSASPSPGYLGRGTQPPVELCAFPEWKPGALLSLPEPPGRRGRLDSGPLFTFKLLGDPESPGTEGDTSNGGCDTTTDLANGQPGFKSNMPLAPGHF
Text: as §2

[4] = tested on: BPH patients; conditions: cited from earlier work; for improvement in urinary flow rates and subjective symptom scores: longer term studies
[5] = target: T4, α-1A adrenoceptor (dog prostate); assay: Functional antagonism of phenylephrine-induced contraction of canine prostate strips; format: cell-based, dog (canine); conditions: vs phenylephrine-induced contraction, Schild plot; read-out: pA2 Dog Prostate [α-1A] (converted)
T4 construct: from tissue; host or cells: canine prostate strips
Text: as §1, §2

Structure (SMILES)	pA2 Dog Prostate [α-1A] [1]	Kb [2] [nM]	Kb [3] [nM]	Kb [5] [nM]	also measured
COc1cccc2c1CC[C@@H]1CN(CCn3c(=O)[nH]c4ccccc4c3=O)C[C@H]21 (relative stereo) [Example 1, 3-[2-(cis-9-Methoxy-2,3,3a,4,5,9b-hexahydro-[1H]-benz[e]isoindol-1-yl)ethyl]-[1H,3H]-quinazoline-2,4(1H,3H)-dione hydrochloride]	9.29	–	–	–	pA2 Rat Vas Deferens [α-1A] [2]: 8.49; pA2 Rat Spleen [α-1B] [3]: 8
COc1cc2nc(N3CCN(C(=O)C4CCCO4)CC3)nc(N)c2cc1OC (stereo not shown) [terazosin]	–	–	–	–	pA2 Rat Spleen [α-1B] [3]: 8.6; improvement in urinary flow rates and subjective symptom scores [4]: significant improvements in urinary flow rates and subjective symptom scores; clinical efficacy in BPH ([4]; non-selective α-1 blockers): Clinical efficacy of α-1 antagonists in BPH has been demonstrated
COc1cccc2c1CC[C@H]1CN(CCn3c(=O)[nH]c4cscc4c3=O)C[C@@H]21 (relative stereo) [Example 8, 3-[2-(cis-6-Methoxy-2,3,3a,4,5,9b-hexahydro-[1H]-benz[e]isoindol-1-yl)ethyl]-thieno[3,4d]pyrimidine-2,4(1H,3H)-dione hydrochloride]	–	3.02	5.5	0.457	–
COc1cccc2c1CC[C@H]1CN(CCn3c(=O)[nH]c4sccc4c3=O)C[C@@H]21 (relative stereo) [Example 3, hydrochloride]	–	4.68	12.3	2.09	–
COc1cc2nc(N3CCN(C(=O)C4COc5ccccc5O4)CC3)nc(N)c2cc1OC (stereo not shown) [doxazosin]	–	–	–	–	improvement in urinary flow rates and subjective symptom scores [4]: significant improvements in urinary flow rates and subjective symptom scores
O=C(NC1CCN(CCc2c[nH]c3ccccc23)CC1)c1ccccc1 [indoramin]	–	–	–	–	improvement in urinary flow rates and subjective symptom scores [4]: significant improvements in urinary flow rates and subjective symptom scores
COc1cc2nc(N3CCN(C(=O)c4ccco4)CC3)nc(N)c2cc1OC [prazosin]	–	–	–	–	improvement in urinary flow rates and subjective symptom scores [4]: significant improvements in urinary flow rates and subjective symptom scores
COc1cccc2c1CC[C@H]1CN(CCn3c(=O)[nH]c4c(OC)cccc4c3=O)C[C@@H]21 (relative stereo) [Example 9, 3-[2-(cis-6-Methoxy-2,3,3a,4,5,9b-hexahydro-[1H]-benz[e]isoindol-1-yl)ethyl]-8-methoxy-quinazoline-2,4(1H,3H)-dione hydrochloride]	–	2.4	8.91	0.407	–
COc1cccc2c1CC[C@H]1CN(CCn3c(=O)[nH]c4cccc(C)c4c3=O)C[C@@H]21 (relative stereo) [Example 12, hydrochloride]	–	8.51	6.76	21.4	–
COc1cccc2c1CC[C@H]1CN(CCn3c(=O)[nH]c4sccc4c3=O)C[C@@H]21 [Example 13, hydrochloride]	–	7.59	4.27	0.851	–

More lines, main results first:

pA2 Dog Prostate [α-1A] [1]	Kb [2] [nM]	Kb [3] [nM]	Kb [5] [nM]	Structure (SMILES)	also measured
8.63	–	–	–	COc1cccc2c1CC[C@H]1CN(CCn3c(=O)[nH]c4c(-c5ccccc5)csc4c3=O)C[C@@H]21 (relative stereo) [Example 31, 3-[2-(cis-6-Methoxy-2,3,3a,4,5,9b-hexahydro-[1H]-benz[e]isoindol-1-yl)ethyl]-7-phenylthieno[3.2-d]pyrimidine-2,4(1H,3H)-dione methanesulfonate]	–
9.45	–	–	–	COc1cccc2c1CC[C@H]1CN(CCn3c(=O)[nH]c4c(OC)c(OC)ccc4c3=O)C[C@@H]21 [Example 81, hydrochloride]	pA2 Rat Vas Deferens [α-1A] [2]: 8.9; pA2 Rat Spleen [α-1B] [3]: 8.15
8.03	–	–	–	CCOc1ccc2c(=O)n(CCN3C[C@@H]4CCc5c(OC)cccc5[C@@H]4C3)c(=O)[nH]c2c1C [Example 78, 3-[2-((3aR,9bR)cis-6-Methoxy-2,3,3a,4,5,9b-hexahydro-[1H]-benz[e]isoindol-1I-yl)ethyl]-7-ethox-8-methyl-quinazoline-2,4(1H,3H|-dione hydrochloride]	–
–	0.891	11.7	0.631	COc1cccc2c1CC[C@H]1CN(CCn3c(=O)[nH]c4c(C)c(C)ccc4c3=O)C[C@@H]21 [Example 80, 3-[2-((3aR.9bR)cis-6-Methoxy-2,3,3a,4,5,9b-hexahydro-[1H-benz[e]isoindol-1-yl)ethyl]-7.8-dimethylquinazoline-2,4(1H,3H)-dione hydrochloride]	–
–	8.51	120	11.2	CCc1cccc2c1CC[C@H]1CN(CCn3c(=O)[nH]c4cc(OC)c(OC)cc4c3=O)C[C@@H]21 [Example 83, hydrochloride]	–
8.28	–	–	–	COc1cccc2c1CC[C@H]1CN(CCn3c(=O)[nH]c4cc(C)c(C)cc4c3=O)C[C@@H]21 [Example 68, hydrochloride]	–
8.57	–	–	–	CCCOC(=O)c1ccc2c(=O)n(CCN3C[C@@H]4CCc5c(OC)cccc5[C@@H]4C3)c(=O)[nH]c2c1 [Example 72, hydrochloride]	–

From patent US5792767A, “Bicyclic substituted hexahydrobenz [e] isoindole alpha-1 adrenergic antagonists” (priority 1995, dated 1998)
